Test results from patent publication US20230405063A1, “USE OF PROBIOTIC COMPONENT AND PHARMACEUTICAL COMPOSITION CONTAINING PROBIOTIC COMPONENT” (CHENGDU KUACHANGAOPU MEDICAL TECHNOLOGY CO., LTD., priority 2020, published 2023).

Legend:
Assay type in all cases: in vivo
[1] = tested on: mouse embryonic fibroblasts 3T3; assay: Local lesion inhibition in 3T3 fibroblast nodule model in nude mice (Example 6, Table 9); settings: dosed twice at interval of 2 days, 150 μl/mouse/time, 7th day after final administration; for V (x ± s), volume of local lesions, series B / relative local lesion inhibition rate r′B: intra-nodal injection; for V (x ± s), volume of local lesions, series A / relative local lesion inhibition rate r′A: intraperitoneal injection
Description: (§1) V=0.5×a×b^2, wherein a and b represent the length and width of the local lesion, respectively; Volume of the local lesion (e.g. tumor):
(§2) Local lesion (e.g., tumor) proliferation rate (R)=TV/CV×100, wherein TV and CV are the local lesion volumes in the study group and negative control group, respectively;
(§3) The method for determining the effect of combined drug administration in animal experiments was Burgi method (Burgi Y. Pharmacology; Drug actions and reactions. Cancerres. 1978, 38(2), 284-285). The Burgi method was modified by Zhengjun JIN (Zhengjun JIN, Equal probability and curve and “Q50”, Journal of the Second Shanghai Medical College; 1981, 1, 75-86) with q calculated as: q=EA+B/(EA+EB−EA×EB). In the following examples of the present invention, the combinational pharmaceutical efficacies (drug efficacies) of drug A and drug B co-administration was determined by ratio q of actual pharmaceutical efficacy (drug efficacy)/theoretical pharmaceutical efficacy (drug efficacy) according to Zhengjun JIN method, as follows.
Nude mice were used as experimental subjects, and mouse embryonic fibroblasts 3T3 were used as modeling cells. 2×10^4 cells/mouse were injected into the right axilla subcutaneously for transplantation nodule modeling, and the average volume of tumor-like nodules in successfully modeled nude mice was 171.5 mm^3. The model animals were randomly divided into […], and the drugs were administered according to Table 9. Each group except for groups 21-24 were administered by intraperitoneal injection, intra-nodal injection. The drugs used in groups 21-24 were a composition of non-local administration dosage form (dosage form that a probiotic component and a co-administration substance could be administered separately). The administration route of series A was: intraperitoneal injection of probiotic component+intra-nodal injection of co-administration substance; and the administration route of series B was: intraperitoneal injection of co-administration substance+intra-nodal injection of probiotic component. Each group was dosed twice at an interval of 2 days, with an injection volume of 150 μl/mouse/time. On the 7th day after the final administration, the volume (V) of local lesions comprising fibroblasts was measured, and the relative local lesion inhibition rates (r′A, r′B) were calculated for series A and series B, respectively, as compared with the negative control group. Further, the actual drug efficacy/expected efficacy ratio q could also be calculated according to the therapeutic effect (local lesion inhibition rate).

breast cancer 4T1 cells [2] = assay: Short- and medium/long-term relative tumor proliferation rate in 4T1 tumor-bearing BALB/c mice (Example 10, Table 16); settings: intratumoral injection, dosed twice at interval of 7 days, 100 μl/mouse/time; for relative tumor proliferation rate R7 d: day 7 after last dose; for relative tumor proliferation rate R21 d: day 21 after last dose
Description: as §1, §2, §3
BALB/c mice were used as experimental subjects, and breast cancer 4T1 cells were used as modeling cells. 0.5×10^6 cells/mouse were injected into the right axilla subcutaneously for transplantation tumor modeling, and the average tumor volume of successfully modeled nude mice was 107.4 mm^3. The model animals were randomly divided into 17 groups.
The drugs, formulated according to the method of Example 1, were administered according to Table 16. Each group was dosed twice with an interval of 7 days, and the injection volumes were 300 μl/mouse/time for groups 13 and 14, 100 μl/mouse/time for other groups. The drugs were administered by subaxillary administration of the right forelimb for group 15, and by intratumoral injection for other groups. Group 16 was administered sequentially (the first dose was aprobiotic semi-fluid-like component/cytotoxic drug/weak local acting compound, and the last dose was inactivated probiotics), while the other groups were administered with the same drug twice. On days 7 and 21 after the last dose, the tumor volumes of each group were measured (V7d, V21d), and the relative tumor proliferation rates (R7d, R21d) were calculated relative to the negative control group, respectively, so that the short-term therapeutic effectiveness (100%−R7d) and the medium- and long-term therapeutic effectiveness (100%−R21d) could be calculated, respectively.

breast cancer 4T1 cells [3] = assay: Short-term tumor inhibition in 4T1 tumor-bearing BALB/c mice (Example 9, Table 14); settings: dosed twice, 7th day after final administration; for tumor inhibition rate rA: series A: intravenous injection; for tumor inhibition rate rB: series B: intratumoral injection
Description: as §3
BALB/c mice were used as experimental subjects, and breast cancer 4T1 cells were used as modeling cells. 0.5×10^6 cells/mouse were injected into the right axilla subcutaneously for transplantation tumor modeling, and the average tumor volume of successfully modeled nude mice was 160.1 mm^3. The model animals were randomly divided into 21 groups, and the drugs were administered by intravenous injection (series A) and intratumoral injection (series B) according to the drugs and doses in Table 14, respectively. All the drugs administered were aqueous liquids, which were formulated according to the method of Example 1. Each group was dosed twice. On the 7th day after final administration, the animals were euthanized, and the tumor tissues were taken out after dissection to determine the tumor weight, and the tumor inhibition rates rA and rB were calculated relative to the corresponding negative control groups in series A and series B.

breast cancer 4T1 cells [4] = assay: Tumor inhibition rate r′10d, r′30d in 4T1 tumor-bearing BALB/c mice (Example 12, Table 18, series A); settings: series A modeled mice, intratumoral injection twice at 3-day interval, 50 ul/mouse/time; for Series A r′10d (tumor inhibition rate): 10th day after 1st administration; for Series A r′30d (tumor inhibition rate): 30th day after 1st administration
Protocol: BALB/c mice were used as experimental subjects, in which modeled animals were used as series A and unmodeled animals as series B. Breast cancer 4T1 cells were use as modeling cells for modeled animals. 0.25×10^5 cells/animal were injected into the right axilla subcutaneously for transplantation tumor modeling, and the average tumor volume of successfully modeled nude mice was 173.6 mm^3. The modeled animals were randomly divided into 18 groups, with 10 animals in each group, and the drugs according to Table 18 was administered via intratumoral injection. BALB/c mice were additionally taken as experimental subjects without modeling, and randomly divided into 18 groups, with 10 animals in each group, the drugs according to Table 18 was administered via intramuscular injection into the right hind thigh. All the study drugs comprising probiotic components were formulated as aqueous formulations according to the preparation method of Example 1, and the other drugs were formulated as aqueous solutions according to the existing well-known methods. Each group was administered twice at an interval of 3 days, and the dosage was 50 ul/mouse/time.
On the 30th day after the first administration, each group of series A and each group of series B were subcutaneous cell transplantation of 1×10^5 breast cancer 4T1 cells/mouse and 0.2×10^5 fibroblast 3T3 cells/mouse respectively to left anterior axilla and left posterior axilla. The tumor incidence rates of 4T1 cell transplantation (S4T1) and of 3T3 cell transplantation (S3T3) in each group were observed on the 10th day after the cell transplantation, wherein the tumor incidence rate S=(number of tumor-bearing animals/number of cell transplanted animals)×100%.

| SMILES | V (x ± s), volume of local lesions, series B [1] [cm^3] | relative local lesion inhibition rate r′B [1] [%] | V (x ± s), volume of local lesions, series A [1] [cm^3] | relative local lesion inhibition rate r′A [1] [%] | relative tumor proliferation rate R7 d (breast cancer 4T1 cells [2]) [%] | relative tumor proliferation rate R21 d (breast cancer 4T1 cells [2]) [%] | tumor inhibition rate rA (breast cancer 4T1 cells [3]) [%] | tumor inhibition rate rB (breast cancer 4T1 cells [3]) [%] | Series A r′10d (tumor inhibition rate) (breast cancer 4T1 cells [4]) [%] | Series A r′30d (tumor inhibition rate) (breast cancer 4T1 cells [4]) [%] |
| --- | --- | --- | --- | --- | --- | --- | --- | --- | --- | --- |
| O=c1[nH]cc(F)c(=O)[nH]1 [1% 5-fluorouracil, 5-fluorouracil] | 1.226 ± 0.217 | 14.3 | 1.225 ± 0.211 | 9.7 | 51 | 93 | 38.1 | 44.1 | 38.5 | 6.1 |
| CCO [75% ethanol, ethanol] | 1.078 ± 0.221 | 24.7 | 1.300 ± 0.197 | 4.2 | 47 | 95 | 2.8 | 21.3 | 42.1 | 3.2 |
